Test results from patent US10596224B2, “Method of treating a wound, comprising the step of administering a composition including a substance P” (Biosolution Co., Ltd, priority 2016, dated 2020).
Entries after “also recorded” stand apart in the source; their conditions may differ. Like-named read-outs stand apart in the source and are kept apart here.

Key:
[1] = tested on: full-thickness skin wound models; experiment: Wound size-reducing effect in skin wound mouse model; type: in vivo, BALB/c female mice; conditions: 6 days after administration
From the text: (§1) Commercially available wound healing agents, Madecassol care ointment (Dongguk Pharmaceuticals, Korea) and Easyef cell regenerating ointment (Daewoong Pharmaceuticals) were used as positive control groups.
(§2) In detail, 7-week-old BALB/c female mice (DooYeol Biotech) were acclimated for 1 week, and then anesthetized by an intraperitoneal injection of a mixture of Ketamine and rumpun. The dorsal hair was removed using an electric razor and a hair removal cream (Veet). Povidone and 70% ethanol were used to disinfect the area from which the epidermis was to be removed, and a 5-mm biopsy punch was used to apply a full-thickness wound on both sides of the lower buttocks, while avoiding the spine of the mouse. To prevent spontaneous wound contraction by the superficial muscle of the mouse, a silicone ring with an outer diameter of 15 mm and an inner diameter of 8 mm was attached around the wounded area using suture threads.
Thereafter, to the wound site, phosphate buffered saline as the negative control was administered, and Madecassol care and Easyef cell regenerating ointments as the positive controls were administered. […]
In detail, the reduced wound size was calculated as the size of wound area by analyzing an image of the wound at 0 day and 6 days after administration of the novel formulations. The size of wound area was quantified by using Photoshop.

[2] = tested on: full-thickness skin wound models; experiment: Angiogenic effect in skin wound mouse model; type: in vivo, BALB/c female mice; conditions: biopsy 6 days after administration, FIG. 5
From the text: In detail, increased angiogenesis was confirmed by examining an image of angiogenesis on the skin tissue with the naked eye after biopsy of the skin tissue of the wound area 6 days after administration of the novel formulations.

[3] = tested on: full-thickness skin wound models; experiment: Epidermal regeneration effect (epidermal gaps, H&E) in skin wound mouse model; type: in vivo, BALB/c female mice; conditions: 6 days after administration, compared to the control groups
From the text: as §1, §2
(§3) Thereafter, to the wound site, phosphate buffered saline as the negative control was administered, and Madecassol care and Easyef cell regenerating ointments as the positive controls were administered. […] Specifically, each 30 μl of SP and each novel formulations were administered to the full-thickness wound once a day for 5 days.

[4] = tested on: full-thickness skin wound models; experiment: Granulation tissue maturation (H&E) in skin wound mouse model; type: in vivo, BALB/c female mice; conditions: 6 days after administration, compared to the negative control group
From the text: as §1, §2, §3

[5] = Stability of SP over time in cell growth media KGM and FGM (SP ELISA kit); type: physicochemical; conditions: stored in KGM and FGM media, 0-24 hrs
Method: SP and SP of SP+HEC+polysorbate 80+sodium thiosulfate formulation were stored in cell growth media for human epithelial keratinocyte (HEK) culture (keratinocyte growth media; KGM) and human dermal fibroblast (HDF) culture (fibroblast growth media; FGM).
Each sample was taken out of the media after a predetermined period of time (0 hr, 3 hrs, 6 hrs, 12 hrs and 24 hrs), and diluted with phosphate buffered saline, and then the SP content in each sample was analyzed using SP ELISA kit.

[6] = Stability of SP at different storage temperatures (SP ELISA kit); type: physicochemical; conditions: stored at 60° C., 37° C., RT, and 4° C. for 4 weeks
Method: Further, it was examined with respect to whether SP stability in each sample was maintained at different temperatures. […] The samples before storage were used as control groups. SP stability was analyzed using SP ELISA kit.

[7] = tested on: human dermal fibroblast cells; conditions: for cell proliferation rate: 48 hours, MTT
Method: The cell proliferative effect of SP was analyzed by MTT assay.
In detail, 100 μl of a human dermal fibroblast cell suspension of 3×10^4 CFU/ml was put in a 96-well culture plate, and incubated for 24 hours. FGM medium (fibroblast growth medium; fibroblast basal medium containing hFGF-B, insulin, fetal bovine serum (FBS), gentamicin, and amphotericin-B) were removed, and then 180 μl of fresh FGM medium was dispensed into each well, and then 20 μl of SP diluted with phosphate buffered saline (PBS) was inoculated by varying its concentration (0.1, 1, 5, 10, 50, and 100 μg/ml).
Meanwhile, 20 μl of phosphate buffered saline was used as a negative control group. After inoculation, cells were incubated at 37° C. for 48 hours, and then the medium, SP, and negative control group were removed. The cells were washed with the phosphate buffered saline three times. 90 μl of FGM medium was mixed with 10 μl of MTT solution (0.5 mg/ml), and treated to each well, and allowed to react at 37° C. for 4 hours.
Finally, the cells were washed with the phosphate buffered saline, and stirred in 150 μl of isopropyl alcohol solution for 10 minutes, and absorbance at 570 nm was measured.

SMILES: CSCC[C@H](NC(=O)[C@H](CC(C)C)NC(=O)CNC(=O)[C@H](Cc1ccccc1)NC(=O)[C@H](Cc1ccccc1)NC(=O)[C@H](CCC(N)=O)NC(=O)[C@H](CCC(N)=O)NC(=O)[C@@H]1CCCN1C(=O)[C@H](CCCCN)NC(=O)[C@@H]1CCCN1C(=O)[C@@H](N)CCCNC(=N)N)C(N)=O [SP]
- size of the wound examined with the naked eye [1]: no significant difference in the wound size; also recorded: slight difference
- wound area (size of wound area quantified) ([1]; 30 μl once a day for 5 days, topical to wound): ≥ 40%
- angiogenesis on the skin tissue (naked eye) [2]: insignificant
- epidermal gaps [3]: about 60%
- granulation tissue maturation [4]: compact granulation tissue formation
- SP content over time (SP stability) [5]: reduction in the SP content over time
- SP content according to temperature conditions (SP stability) [6]: lower SP content than the SP+HEC+polysorbate 80+sodium thiosulfate formulation; also recorded: changes in the SP content according to temperature changes
- cytotoxicity [7]: without cytotoxicity
- cell proliferation rate ([7]; SP 5 μg/ml): ≥ 200%
- proliferation rate compared to the negative control group ([7]; SP 5 μg/ml, negative control phosphate buffered saline): ≥ 2.2 times
- cell proliferation rate ([7]; all concentration groups of 0.1 μg/ml to 100 μg/ml SP): ≥ 170%
